Ends that are not written are not given here.
Test system: FVBN and Mdr2KO mice
Assay: Non-hepatic effects: serum biomarkers of heart (CK) and kidney (CREA, BUN), IDEXX assay system
Assay type: in vivo, mouse
Parameters: CREA / BUN: unit not given here
Conditions: for effects on heart (CK) and kidneys (CREA, BUN): FVBN and Mdr2KO mice, vs vehicle-treated mice; for BUN / CK / CREA: serum
Experimental: FVB/N (FVBN) and Mdr2^−/− (Mdr2KO) mice were purchased from Jackson Laboratory (Bar Harbor, Me.) and maintained in a temperature-controlled environment at 20-22° C. with a 12:12 hours light-dark cycle, having free access to food and drinking water. All animal procedures were performed in accord with the guidelines of Baylor Scott and White (Temple, Tex.) Institutional Animal Care and Use Committee, with approved protocols. In time-course experiments, 1 week, 1 months, 2 months and 4 months old male and female FVBN and Mdr2KO mice were used. In experiments designed to measure the effect of various agonists and antagonists of Gal receptors, on the extent of liver fibrosis in Mdr2KO mice, 2 months old, male and female Mdr2KO mice were used, as well as FVBN mice as negative controls. Four to five animals in each group of age/gender/type (FVBN or Mdr2KO) were used. In parallel, an equal number of 2 months old, male and female FVBN and MDR2KO mice were treated with vehicle only (saline or 20% DMSO) via the same type of minipumps. Galanin, M871 and M40 peptides were dissolved in saline or 20% DMSO in saline, depending on their solubility, and administered by using Alzet osmotic minipumps (Cupertino, Calif.). Galanin, M871 and M40, were administered at a rate of 4 nmol/Kg/day (mice weights being 25-30 g). Vivo-morpholino oligos including two sequences specific to mouse GalR1, and one mouse GalR1 mismatch control, were administered at a rate of 25 μg/mouse/day, for 14 days, after which the mice were euthanized with euthasol, followed by exsanguination and collection of liver tissue.
Serum alanine aminotransferase (ALT), aspartate aminotransferase (AST), alkaline phosphatase (ALKP), CREA, BUN and CK were measured using the IDEXX Catalyst One instrument from IDEXX Laboratories, Inc (Houston, Tex.).
To investigate possible adverse effects of GalR antagonists on vital organs other than the liver, blood biomarkers of the heart (creatine kinase, CK) and kidneys (creatinine, CREA; blood urea nitrogen, BUN) were investigated in FVBN and Mdr2KO mice when treated with GalR1 vivo morpholino, M871, and M40 as compared to vehicle-treated mice.
Referring to Table 2, non-hepatic effects of GalR1 vivo morpholino, M871, and M40 Gal receptor antagonists on FVBN mice are shown. Several serum biomarkers including creatine kinase (CK) for heart, creatinine (CREA) and blood urea nitrogen (BUN) for kidney, were assessed by using IDEXX assay system. Normal range: CK, 68-1070 U/L; CREA, […]; BUN, […].

Substance	effects on heart (CK) and kidneys (CREA, BUN)	BUN (Female FVBN mice)	CK (Female FVBN mice) [U/L]	CREA (Female FVBN mice)	BUN (Female Mdr2KO mice)	CK (Female Mdr2KO mice) [U/L]	CREA (Female Mdr2KO mice)	BUN (Male FVBN mice)	CK (Male FVBN mice) [U/L]	CREA (Male FVBN mice)	BUN (Male Mdr2KO mice)	CK (Male Mdr2KO mice) [U/L]	CREA (Male Mdr2KO mice)
WTLNSAGYLLGPEHPPPALALA-NH2 [M871]	no effects on the heart or kidneys	26.55 ± 1.67	136.67 ± 36.67	0.79 ± 0.041	23.33 ± 0.49	213.33 ± 103.49	0.68 ± 0.012	26.97 ± 0.83	99.67 ± 0.88	0.81 ± 0.063	23.04 ± 0.92	230.00 ± 52.92	0.67 ± 0.042
GWTLNSAGYLLGPPPALALA-NH2 [M40]	no effects on the heart or kidneys		151.30 ± 19.90			163.33 ± 63.33			190.00 ± 58.59			103.33 ± 3.33	

Reference: patent publication US20220233640A1, “GALANIN- AND GALANIN RECEPTOR BASED COMPOUNDS FOR THE TREATMENT OF LIVER FIBROSIS” (United State Govermment as represented by the Department of …, priority 2019, published 2022)
